According to patent publication EP4556004A1 (priority 2023, dated 2025):

What follows are compounds tested on SARS-CoV-2 (assay: SARS-CoV-2 antiviral assay (dose-response, automated confocal imaging of infected cells)). Conditions: SARS-CoV-2, Vero81-derived F1G-red cells, MOI 0.2, 16 h, compounds at 1.56-25 µM.
Type: cell-based, severe acute respiratory syndrome coronavirus-2
Experimental: Dose-response experiments were conducted to determine half-maximal inhibitory concentration, IC50 of the compounds on severe acute respiratory syndrome coronavirus-2 (SARS-CoV-2). Vero81-derived F1G-red cells seeded in 384-well plate were inoculated with SARS-CoV-2 at a multiplicity of infection (MOI) of 0.2, at 37°C, in the presence of each compound at 1.56, 3.13, 6.25, 12.5 and 25 µM. Images were acquired 16 h later using an InCell-6500 automated confocal microscope (Cytiva, Marlborough, United States). Infected cells and total cell numbers were quantified as previously described. Percentage of infection relative to the DMSO controls were obtained and IC50 were calculated using Prism 10 software (Graph Pad Inc., La Jolla, CA, USA). […] Table 2. IC50 of pure and synthetic compounds on SARS-CoV-2

SMILES | IC50
CC(C)=CCC1=C(O)C(C(=O)C(C)C)=C(O)C(CC=C(C)C)(CC=C(C)C)C1=O [Colupulone, Co-lupulone] | < 7 µM
CC(C)=CCC1=C(O)C(CC=C(C)C)(CC=C(C)C)C(=O)C(C(=O)C(C)C)=C1O [LB.70-F2, 3,5-dihydroxy-4,6,6-tris(3-methylbut-2-en-1-yl)-2-(2-methylpropanoyl)cyclo-hexa-2,4-dien-1-one] | < 7 µM

Same assay, conditions: Severe acute respiratory syndrome coronavirus 2, 16 h, SARS-CoV-2, Vero81-derived F1G-red cells, MOI 0.2, 16 h, compounds at 1.56-25 µM

SMILES | IC50
CCC(C)C(=O)C1=C(O)C(CC=C(C)C)=C(O)C(CC=C(C)C)(CC=C(C)C)C1=O (centres unmarked) [AH8-F2, 3,5-dihydroxy-4,6,6-tris(3-methylbut-2-en-1-yl)-2-(2-methylbutanoyl)cyclohexa-2,4-dien-1-one] | < 25 µM
CCCC(=O)C1=C(O)C(CC=C(C)C)=C(O)C(CC=C(C)C)(CC=C(C)C)C1=O [AH10-F2, 2-butyryl-3,5-dihydroxy-4,6,6-tris(3-methylbut-2-en-1-yl)cyclohexa-2,4-dien-1-one] | < 14 µM
CC(C)=CCC1=C(O)C(CC=C(C)C)(CC=C(C)C)C(=O)C(C(=O)C(C)C)=C1O [AH15-F1, 3,5-dihydroxy-2-isobutyryl-4,6,6-tris(3-methylbut-2-en-1-yl)cyclohexa-2,4-dien-1-one] | < 14 µM
CC(=O)C1=C(O)C(CC=C(C)C)=C(O)C(CC=C(C)C)(CC=C(C)C)C1=O [AH16-F2, 2-acetyl-3,5-dihydroxy-4,6,6-tris(3-methylbut-2-en-1-yl)cyclohexa-2,4-dien-1-one] | > 25 µM
CCC(=O)C1=C(O)C(CC=C(C)C)=C(O)C(CC=C(C)C)(CC=C(C)C)C1=O [AH17-F2, 3,5-dihydroxy-4,6,6-tris(3-methylbut-2-en-1-yl)-2-propionylcyclohexa-2,4-dien-1-one] | > 25 µM
CCCCC(=O)C1=C(O)C(CC=C(C)C)=C(O)C(CC=C(C)C)(CC=C(C)C)C1=O [AH18-F4, 3,5-dihydroxy-4,6,6-tris(3-methylbut-2-en-1-yl)-2-pentanoylcyclohexa-2,4-dien-1-one] | < 14 µM
CC(C)=CCC1=C(O)C(CC=C(C)C)(CC=C(C)C)C(=O)C(C(=O)CCC(C)C)=C1O [AH39-F1, 3,5-dihydroxy-4,6,6-tris(3-methylbut-2-en-1-yl)-2-(4-methylpentanoyl)cyclohexa-2,4-dien-1-one] | < 25 µM
CCC(C)CC(=O)C1=C(O)C(CC=C(C)C)=C(O)C(CC=C(C)C)(CC=C(C)C)C1=O (centres unmarked) [AH40-F1, 3,5-dihydroxy-4,6,6-tris(3-methylbut-2-en-1-yl)-2-(3-methylpentanoyl)cyclohexa-2,4-dien-1-one] | > 25 µM
CC(C)=CCC1=C(O)C(CC=C(C)C)(CC=C(C)C)C(=O)C(C(=O)C=Cc2ccccc2)=C1O [AH41-F1, 2-cinnamoyl-3,5-dihydroxy-4,6,6-tris(3-methylbut-2-en-1-yl)cyclohexa-2,4-dien-1-one] | < 25 µM
CC(C)=CCc1c(O)cc(O)c(C(=O)C(C)C)c1O [AH62-F2, 2-methyl-1-(2,4,6-trihydroxy-3-(3-methylbut-2-en-1-yl)phenyl)propan-1-one] | < 7 µM
CC(C)=CCC1(CC=C(C)C)C(=O)C(C(=O)C(C)C)=C(O)C(C(=O)C(C)C)=C1O [AH66-F1, 1,1'-(2,4-dihydroxy-5,5-bis(3-methylbut-2-en-1-yl)-6-oxocyclohexa-1,3-diene-1,3-diyl)bis(2-methylpropan-1-one)] | < 25 µM
CC(C)=CCC1=C(O)C(C(=O)CC(C)C)=C(O)C(CC=C(C)C)(CC=C(C)C)C1=O [Lupulone] | < 7 µM
